Experimental findings from US11098041B2 (Merck Patent GmbH, priority 2014, dated 2021) are described below.

pIC50: −log10 of the molar value.

The target of the assay is full-length human BTK (Homo sapiens (Human), UniProt Q06187). The assay can be described thus: Assay A: microfluidic off-chip mobility shift assay against BTK enzyme. It counts as biochemical. The procedure: Assay A: Microfluidic Off-Chip Mobility Shift Assay Protocol for Potency Assessment Against BTK Enzyme
Sequence of full-length human BTK (Q06187 whole entry): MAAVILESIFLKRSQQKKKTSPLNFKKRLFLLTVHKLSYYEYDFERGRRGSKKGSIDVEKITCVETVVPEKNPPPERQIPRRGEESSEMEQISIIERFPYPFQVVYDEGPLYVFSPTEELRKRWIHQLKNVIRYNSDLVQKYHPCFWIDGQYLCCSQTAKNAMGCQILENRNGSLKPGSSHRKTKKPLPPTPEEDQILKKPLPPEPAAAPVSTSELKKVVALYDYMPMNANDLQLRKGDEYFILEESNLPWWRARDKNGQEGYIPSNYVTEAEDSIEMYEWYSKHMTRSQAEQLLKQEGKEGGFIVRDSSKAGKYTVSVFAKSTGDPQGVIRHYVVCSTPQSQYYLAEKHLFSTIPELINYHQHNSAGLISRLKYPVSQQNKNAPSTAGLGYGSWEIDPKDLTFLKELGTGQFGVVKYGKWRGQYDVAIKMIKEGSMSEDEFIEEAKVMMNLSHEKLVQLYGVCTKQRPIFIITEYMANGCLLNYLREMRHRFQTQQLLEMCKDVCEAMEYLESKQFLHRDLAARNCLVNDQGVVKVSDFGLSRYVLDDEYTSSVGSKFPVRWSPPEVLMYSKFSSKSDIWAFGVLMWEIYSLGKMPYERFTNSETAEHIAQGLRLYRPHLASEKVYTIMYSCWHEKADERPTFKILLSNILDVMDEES
The protocol below describes microfluidic, off-chip mobility shift kinase assay to measure inherent potency of compounds against BTK enzyme.
5 uL of enzyme buffer and 7.5 uL of ATP/kinKDR peptide substrate mix were added to Matrix (#115304) 384-well, sterile, polypropylene plates (Thermo Fisher Scientific, Hudson, N.H.) with 125 nL of serially diluted compounds prepared in 100% DMSO, and incubated for 90 min. at 27° C. Following the incubation period, reactions were stopped by adding 60 uL stop buffer consisting of 100 mM HEPES, pH 7.5, 0.015% Brij-35 (30%), 0.277% Coating Reagent #3 (Caliper Life Sciences, Mountain View, Calif.), 5% DMSO. Stopped reactions were monitored at −2 PSI, −3000 V/−700 V in a LabChip 3000 plate reader from Caliper Life Sciences, a PerkinElmer Company (Hopkinton, Mass.), and the activity was measured by off-chip mobility shift assay measuring the charge/mass difference between substrate and product resulting from peptide phosphorilation. IC50 and efficacy were determined by plotting log [Inhibitor] vs. % Activity in GeneData Screener (Basel. Switzerland).
One may read the pIC50 as the negative decadic logarithm of the IC50, by convention in mol/L. For the compound `Cn1cc(-c2nc3c(-c4ccc5c(c4)CCN(C(=O)c4nc(C(C)(C)C)no4)C5)ccnc3[nH]2)cn1` [Example 154, (3-tert-Butyl-[1,2,4]oxadiazol-5-yl)-{6-[2-(1-methyl-1H-pyrazol-4-yl)-3H-imidazo[4,5-b]pyridin-7-yl]-3,4-dihydro-1H-isoquinolin-2-yl}-methanone], the negative-log IC50 (pIC50) is less than 5.30.

Consider `Cn1cc(-c2nc3c(-c4ccc(CN5CCOc6cc(C7CC7)cc(F)c6C5=O)nc4)ccnc3[nH]2)cn1` [Example 171, 8-cyclopropyl-6-fluoro-4-([5-[2-(1-methyl-1H-pyrazol-4-yl)-3H-imidazo[4,5-b]pyridin-7-yl]pyridin-2-yl]methyl)-2,3,4,5-tetrahydro-1,4-benzoxazepin-5-one], for which the pIC50 is greater than 7.00.

`NCc1ccc(-c2ccnc3[nH]c(-c4cnn(C5CCC5)c4)nc23)cc1F` [Example 188, 4-[2-(1-Cyclobutyl-1H-pyrazol-4-yl)-3H-imidazo[4,5-b]pyridin-7-yl]-2-fluoro-benzylamine]: the negative logarithm of the IC50 (pIC50) was 5.30 to 6.00.

For `CN(C)c1ccc(-c2nc3c(-c4ccc(CNC(=O)c5nnc(C(C)(C)C)o5)c(F)c4)ccnc3[nH]2)nc1` [Example 172, 5-tert-butyl-N-[(4-[2-[5-(dimethylamino)pyridin-2-yl]-3H-imidazo[4,5-b]pyridin-7-yl]-2-fluorophenyl)methyl]-1,3,4-oxadiazole-2-carboxamide], the pIC50 was greater than 7.00.

For the compound `CC(C)(C)c1nc(C(=O)NCc2ccc(-c3ccnc4[nH]c(-c5ccc(N6CCC(F)CC6)cn5)nc34)cc2F)no1` [Example 167, 5-tert-butyl-N-[(2-fluoro-4-[2-[5-(4-fluoropiperidin-1-yl)pyridin-2-yl]-3H-imidazo[4,5-b]pyridin-7-yl]phenyl)methyl]-1,2,4-oxadiazole-3-carboxamide], the negative-log IC50 (pIC50) is greater than 7.00.

Take `CN1CCC(c2ccc(-c3nc4c(-c5ccc(CNC(=O)c6noc(C(C)(C)C)n6)c(F)c5)ccnc4[nH]3)nc2)CC1` [Example 169, 5-tert-butyl-N-[(2-fluoro-4-[2-[5-(1-methylpiperidin-4-yl)pyridin-2-yl]-3H-imidazo[4,5-b]pyridin-7-yl]phenyl)methyl]-1,2,4-oxadiazole-3-carboxamide]: the negative-log IC50 (pIC50) was greater than 7.00.

For `Cn1cc(-c2nc3c(-c4ccc(C5(NC(=O)c6nnc(C(C)(C)C)o6)CC5)cc4)ccnc3[nH]2)cn1` [Example 97, 5-tert-Butyl-[1,3,4]oxadiazole-2-carboxylic acid (1-{4-[2-(1-methyl-1H-pyrazol-4-yl)-3H-imidazo[4,5-b]pyridin-7-yl]-phenyl}-cyclopropyl)-amide], the negative logarithm of the IC50 (pIC50) is greater than 7.00.

With `Cn1cc(-c2nc3c(-c4ccc(CNS(=O)(=O)CC5(CC#N)CC5)c(F)c4)ccnc3[nH]2)cn1` [Example 177, 1-(1-(cyanomethyl)cyclopropyl)-N-(2-fluoro-4-(2-(1-methyl-1H-pyrazol-4-yl)-3H-imidazo[4,5-b]pyridin-7-yl)benzyl)methanesulfonamide], the pIC50 is 5.30 to 6.00.

For `CC(C)(C)OC(=O)N1CC=C(c2nc3c(-c4ccc(CNC(=O)c5noc(C(C)(C)C)n5)c(F)c4)ccnc3[nH]2)CC1` [Example 137, tert-butyl 4-(7-(4-((5-(tert-butyl)-1,2,4-oxadiazole-3-carboxamido)methyl)-3-fluorophenyl)-3H-imidazo[4,5-b]pyridin-2-yl)-5,6-dihydropyridine-1(2H)-carboxylate], the negative logarithm of the IC50 (pIC50) was greater than 7.00.

`Cn1cc(-c2nc3c(-c4cccc(CNC(=O)c5noc(C(C)(C)C)n5)c4)ccnc3[nH]2)cn1` [Example 87, 5-tert-Butyl-N-([3-[2-(1-methyl-1H-pyrazol-4-yl)-3H-imidazo[4,5-b]pyridin-7-yl]phenyl]methyl)-1,2,4-oxadiazole-3-carboxamide]: the pIC50 was 5.30 to 6.00.

For `Cn1cc(-c2nc3c(-c4ccc(CNCc5cccc(C(C)(C)C)c5)c(F)c4)ccnc3[nH]2)cn1` [Example 180, N-(3-(tert-butyl)benzyl)-1-(2-fluoro-4-(2-(1-methyl-1H-pyrazol-4-yl)-3H-imidazo[4,5-b]pyridin-7-yl)phenyl)methanamine], the pIC50 was less than 5.30.

Turning to `Cc1ccc(-n2ccn(-c3cccc(-c4ccnc5[nH]c(-c6ccc(C(=O)N7CCOCC7)cc6)nc45)c3CO)c2=O)cc1` [Example 96, 1-[2-(Hydroxymethyl)-3-(2-[4-[(morpholin-4-yl)carbonyl]phenyl]-3H-imidazo[4,5-b]pyridin-7-yl)phenyl]-3-(4-methylphenyl)-2,3-dihydro-1H-imidazol-2-one], the pIC50 is 6.00 to 7.00.

Regarding `Cn1cc(-c2nc3c(-c4ccc(CNCc5ccc(C(C)(C)C)cc5)c(F)c4)ccnc3[nH]2)cn1` [Example 181, N-(4-(tert-butyl)benzyl)-1-(2-fluoro-4-(2-(1-methyl-1H-pyrazol-4-yl)-3H-imidazo[4,5-b]pyridin-7-yl)phenyl)methanamine], the pIC50 was less than 5.30.

With `Cc1cc(-c2ccnc3[nH]c(-c4ccc(OCC(O)CO)cn4)nc23)ccc1CN1CCOc2cc(C3CC3)cc(F)c2C1=O` (centres unmarked) [Example 170, 8-cyclopropyl-4-[(4-[2-[5-(2,3-dihydroxypropoxy)pyridin-2-yl]-3H-imidazo[4,5-b]pyridin-7-yl]-2-methylphenyl)methyl]-6-fluoro-2,3,4,5-tetrahydro-1,4-benzoxazepin-5-one], the pIC50 was greater than 7.00.

For `CC(C)(C)c1noc(C(=O)NCc2ccc(-c3ccnc4[nH]c(-c5ccc(N6CCCCC6)cn5)nc34)cc2F)n1` [Example 157, 3-tert-Butyl-N-[(2-fluoro-4-[2-[5-(piperidin-1-yl)pyridin-2-yl]-3H-imidazo[4,5-b]pyridin-7-yl]phenyl)methyl]-1,2,4-oxadiazole-5-carboxamide], the negative-log IC50 (pIC50) was greater than 7.00.

`Cn1cc(-c2nc3c(-c4ccc(CNS(=O)(=O)CCC5CCC5)c(F)c4)ccnc3[nH]2)cn1` [Example 178, 2-cyclobutyl-N-(2-fluoro-4-(2-(1-methyl-1H-pyrazol-4-yl)-3H-imidazo[4,5-b]pyridin-7-yl)benzyl)ethanesulfonamide]: the pIC50 was 5.30 to 6.00.

Turning to `Cn1cc(-c2nc3c(-c4ccc(CNCc5ccc(F)c(F)c5)c(F)c4)ccnc3[nH]2)cn1` [Example 174, N-(3,4-difluorobenzyl)-1-(2-fluoro-4-(2-(1-methyl-1H-pyrazol-4-yl)-3H-imidazo[4,5-b]pyridin-7-yl)phenyl)methanamine], the pIC50 is less than 5.30.

On to `Cn1cc(-c2nc3c(-c4ccc(CNS(=O)(=O)CC5CCCS(=O)(=O)C5)c(F)c4)ccnc3[nH]2)cn1` (centres unmarked) [Example 179, 1-(1,1-dioxidotetrahydro-2H-thiopyran-3-yl)-N-(2-fluoro-4-(2-(1-methyl-1H-pyrazol-4-yl)-3H-imidazo[4,5-b]pyridin-7-yl)benzyl)methanesulfonamide], for which the negative-log IC50 (pIC50) is less than 5.30.

For the compound `Cn1cc(-c2nc3c(-c4ccc(CNS(C)(=O)=O)c(F)c4)ccnc3[nH]2)cn1` [Example 176, N-(2-fluoro-4-(2-(1-methyl-1H-pyrazol-4-yl)-3H-imidazo[4,5-b]pyridin-7-yl)benzyl)methanesulfonamide], the negative-log IC50 (pIC50) was less than 5.30.

Turning to `Cc1ccc(S(=O)(=O)NCc2ccc(-c3ccnc4[nH]c(-c5cnn(C)c5)nc34)cc2F)cc1` [Example 175, N-(2-fluoro-4-(2-(1-methyl-1H-pyrazol-4-yl)-3H-imidazo[4,5-b]pyridin-7-yl)benzyl)-4-methylbenzenesulfonamide], the pIC50 was less than 5.30.
